PMC10081574, “Evaluation of Antiviral Activity of Gemcitabine Derivatives against Influenza Virus and Severe Acute Respiratory Syndrome Coronavirus 2” (ACS Infectious Diseases, 2023)
“Also recorded” adds a separate entry of the source. Read-outs that look alike come from different tables or passages of the source.

Tests used:
[1] = tested on: A/Puerto Rico/8/34 (H1N1); assay: microbe, parasite or virus in culture; conditions: Influenza A virus, 72 h; for EC50 / EC90: H1N1 / PR8, MDCK; for EC50: read-out: EC50 PR8; for EC90: read-out: EC90 PR8; for viability at 10 µM: H1N1|PR8, MDCK, read-out: viability of PR8-infected cells in library screening
[2] = Cytotoxicity to mock-infected MDCK cells (MTT); conditions: dog, mock-infected MDCK cells
A/Hong Kong/8/68 (H3N2) [3] = assay: microbe, parasite or virus in culture; conditions: Influenza A virus, H3N2, MDCK, 72 h; for EC50: read-out: EC50 HK; for EC90: read-out: EC90 HK; for viability at 10 µM: read-out: viability of HK-infected cells in library screening
B/Lee/40 = assay: CPE reduction antiviral assay in Lee-infected MDCK cells (MTT); assay type: cell-based, influenza B virus; conditions: for EC50: viability of infected cells to 50%; for EC90: read-out: EC90 Lee; for SI50 Lee: ratio of CC50 to EC50; for SI90 Lee: ratio of CC10 to EC90
[4] = tested on: influenza A and B viruses; assay: CPE reduction antiviral assay, values summarised over influenza strains PR8, HK and Lee; assay type: cell-based, influenza virus; conditions: for EC50: read-out: EC50 against influenza viruses; for SI50 against influenza viruses / SI90 against influenza viruses: over PR8, HK and Lee; for SI50 against influenza viruses: CC50/EC50
MDCK cells [5] = assay: Cytotoxicity to mock-infected MDCK cells (MTT); conditions: for CC10: mock-infected MDCK cells, day 3, MTT, concentration inhibiting cell viability by 10%
[6] = clinical study; cited from earlier work
A/Hong Kong/8/68 (H3N2) [7] = conditions: for SI50 HK: ratio of CC50 to EC50; for SI90 HK: ratio of CC10 to EC90
[8] = tested on: Caco-2 human colorectal adenocarcinoma cells; design: method as in PMID 35310327; conditions: 0.1 μM to 1 mM, 3 day incubation; cited from earlier work
[9] = tested on: A/Puerto Rico/8/34 (H1N1); conditions: for SI90 PR8: ratio of CC10 to EC90; for SI50 PR8: ratio of CC50 to EC50
in vitro [10] = conditions: dog
MDCK cells [11] = tested on: MDCK cells
[12] = male, BALB/c, mouse, in vivo, ip, 5 mg/kg, 30 min
Calu-3 cells = assay: Cytotoxicity to mock-infected Calu-3 cells (MTT); conditions: 100 μM
PR8 virus [13] = assay type: cell-based, influenza A virus
[14] = biological target: polymerase activity of influenza A virus PR8 (Influenza A virus, UniProt P03431); assay type: cell-based; conditions: 11, 33 and 100 μM, 72 h time course
SARS-CoV-2 = assay: Anti-SARS-CoV-2 immunofluorescence assay (anti-S) in Calu-3 cells; assay type: cell-based; conditions: for SI SARS-CoV-2: ratio of CC50 to EC50
[15] = mouse, microsomes
physchem = conditions: aqueous buffer
in vitro [16] = conditions: human
PR8 virus [17] = assay type: cell-based, influenza A virus; remark: listed apart in the source
[18] = Influenza B virus, MDCK, 72 h, read-out: EC50 Lee, MDCK, MOI 0.001, day 3
[19] = Influenza A virus, span over PR8, HK and Lee, MDCK
[20] = Influenza A virus, PR8, MDCK, span over PR8, HK and Lee, MDCK, read-out: EC90 against influenza viruses
[21] = Influenza B virus, MDCK, 72 h, MDCK, MOI 0.001, day 3, read-out: EC50 Lee
[22] = span over PR8, HK and Lee, MDCK, read-out: EC90 against influenza viruses

## NC(=O)c1ncn([C@@H]2O[C@H](CO)[C@@H](O)[C@H]2O)n1 [Ribavirin, reference compound]
[1]
  EC50: 20.1 µM
  EC90: 79.4 µM
[2]
  CC50 at 3 days: > 300 µM
A/Hong Kong/8/68 (H3N2) [3]
  EC50: 20.4 µM
  EC90: 59.5 µM
B/Lee/40; [18]
  EC50: 11.1 ± 0.1 µM
B/Lee/40; Influenza B virus, MDCK, 72 h
  EC90: 141 ± 18.3 µM

## Nc1ccn([C@@H]2O[C@H](CO)[C@@H](O)C2(F)F)c(=O)n1 [Gemcitabine, 2′,2′-difluoro-2′-deoxycytidine]
[1]
  EC50: 0.6 µM
  viability at 10 µM: > 50%
[4]; [19]
  EC50: 0.3 to 0.7 µM
[4]; MDCK, day 3
  recovery of viability of virus-infected cells with 90% cutoff: failed to reach cell viability above 90%; also recorded: failed to recover over 90% cell viability
[4]
  SI50 against influenza viruses: above 464.8
MDCK cells [5]; 100 μM, MDCK, data not shown
  cytotoxicity at a higher concentration: severe cytotoxicity
MDCK cells [5]; incubation of MDCK cells
  concentrations at which MDCK cell viability gradually decreased: above 3.3 μM
MDCK cells [5]
  CC10: 5.0 ± 0.3 µM
MDCK cells [5]; listed as gemcitabine
  CC10: 5.0 µM
[2]
  CC50 at 3 days: > 300 µM
[6]
  toxicity after oral administration: liver necrosis-mediated lethal hepatotoxicity
A/Hong Kong/8/68 (H3N2) [3]
  EC50: 0.3 µM
  viability at 10 µM: > 50%
A/Hong Kong/8/68 (H3N2) [7]
  SI50 HK: > 883.5
[8]
  suppression of Caco-2 cancer cell proliferation: 40–50%
B/Lee/40; [18]
  EC50: 0.7 µM
B/Lee/40; MDCK, MOI 0.001, day 3, read-out: EC50 Lee
  EC50: 0.4 µM

## NC12CC3CC(CC(C3)C1)C2 [Amantadine, reference compound]
MDCK cells [5]
  CC10: 91.0 ± 34.5 µM
[2]
  CC50 at 3 days: > 300 µM
A/Hong Kong/8/68 (H3N2) [3]
  EC50: 15.4 ± 5.1 µM
A/Hong Kong/8/68 (H3N2) [7]
  SI50 HK: > 19.5

## O=C(Nc1ccn([C@@H]2O[C@H](CO)[C@@H](O)C2(F)F)c(=O)n1)c1cccnc1 [Compound 3a]
[1]
  EC50: 5.8 ± 0.9 µM
  EC90: 16.9 ± 7.2 µM
  viability at 10 µM: > 50%
[4]; [20]
  EC90: 1.4 to 16.9 µM
[4]; Influenza A virus, PR8, PR8 and HK only, read-out: EC90 against influenza A viruses
  EC90: 10.6 to 16.9 µM
[4]; [19]
  EC50: 3.1 to 6.2 µM
[4]; PR8 and HK only, CC10/EC90
  SI90 against influenza A viruses: 2.7–4.2
[4]; dose-response, MDCK
  concentration of maximal antiviral efficacy: ~33 µM
[4]
  SI50 against influenza viruses: > 48.4
A/Hong Kong/8/68 (H3N2) [3]
  EC50: 6.2 ± 1.1 µM
  EC90: 10.6 ± 0.8 µM
  viability at 10 µM: > 50%
A/Hong Kong/8/68 (H3N2) [7]
  SI90 HK: 4.2
  SI50 HK: > 48.4
[9]
  SI90 PR8: 2.7
  SI50 PR8: > 52.1
B/Lee/40; [21]
  EC50: 3.1 ± 0.5 µM
B/Lee/40; MDCK, 90% viability criteria
  activity against influenza B virus by EC90/SI90 criteria: not against influenza B virus
B/Lee/40
  SI50 Lee: > 95.7
In vitro [10]
  CC50 at 3 days: > 300 µM
MDCK cells [11]
  reduction of cytotoxicity relative to gemcitabine: ninefold

## Nc1ccc(C(=O)Nc2ccn([C@@H]3O[C@H](CO)[C@@H](O)C3(F)F)c(=O)n2)nc1 [Compound 2h]
[1]
  EC50: 6.4 ± 0.6 µM
  EC90: 12.2 ± 1 µM
[4]; [20]
  EC90: 10.7 to 34.3 µM
[4]; CC10/EC90
  SI90 against influenza viruses: > 8.7
[4]; [22]
  EC90: 11.4 to 15.9 µM
[12]
  share of 2h converted to gemcitabine: 17.5%
Calu-3 cells
  cell death: about 20%
PR8 virus [13]
  reduction of viral RNA copies: in a dose-dependent manner
[14]
  inhibition of viral polymerase activity (EGFP expression): potently inhibited viral polymerase activity in a dose-dependent manner
SARS-CoV-2; 1.2, 3.7, 11.1 and 33.3 μM, 2 days
  reduction of the viral S protein (immunofluorescence): in a dose-dependent manner
SARS-CoV-2; Severe acute respiratory syndrome coronavirus 2, 48 h, Calu-3, MOI 0.05, 2 days
  EC50: 0.46 µM
SARS-CoV-2
  SI SARS-CoV-2: > 217.4
[15]
  stability in a microsomal condition in vitro: much more stable
A/Hong Kong/8/68 (H3N2) [3]
  EC50: 5 ± 0.3 µM
  EC90: 11.4 ± 0.6 µM
A/Hong Kong/8/68 (H3N2) [7]
  SI90 HK: > 26.3
  SI50 HK: > 59.5
[9]
  SI90 PR8: > 24.5
  SI50 PR8: > 47.2
B/Lee/40; Influenza B virus, 72 h, MDCK, MOI 0.001, day 3, viability of infected cells to 90%
  EC90: 15.9 ± 1.7 µM
B/Lee/40; [21]
  EC50: 4.1 ± 0.4 µM
B/Lee/40
  SI90 Lee: > 18.8
  SI50 Lee: > 73.1
physchem
  solubility: ≥ 2000 µg/mL
In vitro [16]
  CC50 at 2 days: > 100 µM
PR8 virus [17]
  reduction of viral NP protein expression: in a dose-dependent manner
In vitro [10]
  CC50 at 3 days: > 300 µM
  viability at 3 days, 300 µM: > 90%
MDCK cells [11]; dog, 3 days
  reduction of cytotoxicity relative to gemcitabine: over 60 fold

## CCC(CC)COC(=O)[C@H](C)N[P@](=O)(OC[C@H]1O[C@@](C#N)(c2ccc3c(N)ncnn23)[C@H](O)[C@@H]1O)Oc1ccccc1 [Remdesivir, reference compound]
SARS-CoV-2
  SI SARS-CoV-2: > 129.0

## O=C(Nc1ccn([C@@H]2O[C@H](CO)[C@@H](O)C2(F)F)c(=O)n1)c1cccc(-c2ccccc2)n1 [Compound 2e]
[1]
  EC50: 4.1 ± 0.4 µM
  EC90: 16.6 ± 8.6 µM
[4]; [20]
  EC90: 10.7 to 34.3 µM
[4]; CC10/EC90
  SI90 against influenza viruses: > 8.7
[4]; [22]
  EC90: 14.5 to 34.3 µM
PR8 virus [13]
  reduction of viral RNA copies: in a dose-dependent manner
[14]
  inhibition of viral polymerase activity (EGFP expression): Inhibition of influenza A viral polymerase activity
A/Hong Kong/8/68 (H3N2) [3]
  EC50: 5 ± 0.1 µM
  EC90: 14.5 ± 0.4 µM
A/Hong Kong/8/68 (H3N2) [7]
  SI90 HK: > 20.7
[9]
  SI90 PR8: > 18.1
  SI50 PR8: > 73.3
B/Lee/40; [18]
  EC50: 3.39 ± 0.1 µM
B/Lee/40; Influenza B virus, MDCK, 72 h
  EC90: 34.3 ± 4.3 µM
B/Lee/40
  SI90 Lee: > 8.7
  SI50 Lee: > 88.5
physchem
  solubility: < 500 µg/mL
PR8 virus [17]
  reduction of viral NP protein expression: in a dose-dependent manner
In vitro [10]
  CC50 at 3 days: > 300 µM
  viability at 3 days, 300 µM: > 90%
